The assay deals with human FXR (NR1H4) (Homo sapiens (Human), UniProt Q96RI1). The assay is described as follows: Human FXR (NR1H4) Assay (Gal4 promoter driven luciferase reporter, Indigo Bioscience kit IB00601). The assay is classed as cell-based. The note with it: for Efficacy (%): efficacy normalized to CDCA set as 100%; for EC50: potency ranges. The source says: Assays Human FXR (NR1H4) Assay
Determination of a ligand mediated Gal4 promoter driven transactivation quantify ligand binding mediated activation of FXR. FXR Reporter Assay kit purchased from Indigo Bioscience (Catalogue number: IB00601) to determine the potency and efficacy of compound developed by Enanta that can induce FXR activation. The principle application of this reporter assay system is to quantify functional activity of human FXR. The assay utilizes non-human mammalian cells, CHO (Chinese hamster ovary) cells engineered to express human NR1H4 protein (referred to as FXR). Reporter cells also incorporate the cDNA encoding beetle luciferase which catalyzes the substrates and yields photon emission. Luminescence intensity of the reaction is quantified using a plate-reading luminometer, Envision. Reporter Cells include the luciferase reporter gene functionally linked to an FXR responsive promoter. Thus, quantifying changes in luciferase expression in the treated reporter cells provides a sensitive surrogate measure of the changes in FXR activity. […] The assay is according to the manufacturer's instructions. In brief, the assay was performed in white, 96 well plates using final volume of 100 ul containing cells with different doses of compounds. Retrieve Reporter Cells from −80° C. storage. Perform a rapid thaw of the frozen cells by transferring a 10 ml volume of 37° C. cell recovery medium into the tube of frozen cells. Recap the tube of Reporter Cells and immediately place it in a 37° C. water bath for 5-10 minutes. Retrieve the tube of Reporter Cell Suspension from the water bath. Sanitize the outside surface of the tube with a 70% alcohol swab, and then transfer it into the cell culture hood. Dispense 90 μl of cell suspension into each well of the 96-well Assay Plate. Transfer the plate into 37° C. incubator, allowing the cells adherent to the bottom of the well. Dilute compounds in Dilution Plate (DP), and administrate to cells at Assay Plate (AP). DMSO content of the samples was kept at 0.2%. Cells were incubated for additional 22 hours before luciferase activities were measured. Thirty minutes before intending to quantify FXR activity, remove Detection Substrate and Detection Buffer from the refrigerator and place them in a low-light area so that they may equilibrate to room temperature. Remove the plate's lid and discard all media contents by ejecting it into an appropriate waste container. Gently tap the inverted plate onto a clean absorbent paper towel to remove residual droplets. Cells will remain tightly adhered to well bottoms. Add 100 μl of luciferase detection reagent to each well of the assay plate. Allow the assay plate to rest at room temperature for at least 5 minutes following the addition of LDR. Set the instrument (Envision) to perform a single 5 second “plate shake” prior to reading the first assay well. Read time may be 0.5 second (500 mSec) per well.

Sequence of human FXR (NR1H4) (Q96RI1 whole entry, the tested form may be a part): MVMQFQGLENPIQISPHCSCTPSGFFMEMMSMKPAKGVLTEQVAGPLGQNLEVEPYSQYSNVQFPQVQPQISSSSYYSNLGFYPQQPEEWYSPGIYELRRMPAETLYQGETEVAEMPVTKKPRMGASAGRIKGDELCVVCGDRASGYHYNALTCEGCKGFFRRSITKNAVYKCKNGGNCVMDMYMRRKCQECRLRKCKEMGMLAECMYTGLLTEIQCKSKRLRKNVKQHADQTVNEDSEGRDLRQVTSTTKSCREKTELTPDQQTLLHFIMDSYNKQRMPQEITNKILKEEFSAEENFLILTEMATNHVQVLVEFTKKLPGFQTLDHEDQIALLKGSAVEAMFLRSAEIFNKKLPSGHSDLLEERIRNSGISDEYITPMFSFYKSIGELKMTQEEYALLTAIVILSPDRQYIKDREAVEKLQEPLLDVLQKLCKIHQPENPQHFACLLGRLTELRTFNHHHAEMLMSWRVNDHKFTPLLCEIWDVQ

Take `CC[C@H]1[C@@H](O)[C@@H]2[C@H](CC[C@]3(C)[C@@H]([C@H](C)CCNC(=O)NS(=O)(=O)c4ccc5c(c4)CCN5C(C)=O)CC[C@@H]23)[C@@]2(C)CC[C@@H](O)C[C@@H]12` [Example 62]: the “Efficacy (%)” value is reported as 476% and the concentration for a half-maximal effect (EC50) was in the range of 1000 to 10000 nM.
On the same counts, the results for `CC[C@H]1[C@@H](O)[C@@H]2[C@H](CC[C@]3(C)[C@@H]([C@H](C)CCNC(=O)NS(=O)(=O)C[C@]45CCC(CC4=O)C5(C)C)CC[C@@H]23)[C@@]2(C)CC[C@@H](O)C[C@@H]12` [Example 60] are 346% and under 100 nM.
On the same counts, the results for `CC[C@H]1[C@@H](O)[C@@H]2[C@H](CC[C@]3(C)[C@@H]([C@H](C)CCNC(=O)NS(=O)(=O)N4CCC5(CC4)COC5)CC[C@@H]23)[C@@]2(C)CC[C@@H](O)C[C@@H]12` [Example 74] are 242% and 100 to 1000 nM.
The like results for `CC[C@H]1[C@@H](O)[C@@H]2[C@H](CC[C@]3(C)[C@@H]([C@H](C)CCNC(=O)NS(=O)(=O)c4ccc5c(c4)CCC5)CC[C@@H]23)[C@@]2(C)CC[C@@H](O)C[C@@H]12` [Example 55] were, in that order, 271% and under 100 nM.
On to `CC[C@H]1[C@@H](O)[C@@H]2[C@H](CC[C@]3(C)[C@@H]([C@H](C)CCNC(=O)NS(=O)(=O)C4CCCC4)CC[C@@H]23)[C@@]2(C)CC[C@@H](O)C[C@@H]12` [Example 27], for which the “Efficacy (%)” value is 275% and the EC50 is under 100 nM.
`CC[C@H]1[C@@H](O)[C@@H]2[C@H](CC[C@]3(C)[C@@H]([C@H](C)CCNC(=O)NS(=O)(=O)c4ccc(C(C)(C)C)s4)CC[C@@H]23)[C@@]2(C)CC[C@@H](O)C[C@@H]12` [Example 111]: the “Efficacy (%)” value was 314% and the EC50 was under 100 nM.
On the same counts, the results for `CC[C@H]1[C@@H](O)[C@@H]2[C@H](CC[C@]3(C)[C@@H]([C@H](C)CCNC(=O)NS(=O)(=O)C(F)(F)F)CC[C@@H]23)[C@@]2(C)CC[C@@H](O)C[C@@H]12` [Example 104] are 298% and 1000 to 10000 nM.
On the same counts, the results for `CC[C@H]1[C@@H](O)[C@@H]2[C@H](CC[C@]3(C)[C@@H]([C@H](C)CCNC(=O)NS(=O)(=O)N4CCC5(CC4)CC5)CC[C@@H]23)[C@@]2(C)CC[C@@H](O)C[C@@H]12` [Example 86] are 390% and under 100 nM.
On to `CC[C@H]1[C@@H](O)[C@@H]2[C@H](CC[C@]3(C)[C@@H]([C@H](C)CCNC(=O)NS(=O)(=O)c4cnccn4)CC[C@@H]23)[C@@]2(C)CC[C@@H](O)C[C@@H]12` [Example 64], for which the “Efficacy (%)” value was 334% and the EC50 is 1000 to 10000 nM.
The like results for `CC[C@H]1[C@@H](O)[C@@H]2[C@H](CC[C@]3(C)[C@@H]([C@H](C)CCNC(=O)NS(=O)(=O)c4ccc(-c5csc(C)n5)cc4)CC[C@@H]23)[C@@]2(C)CC[C@@H](O)C[C@@H]12` [Example 71] were, in that order, 419% and 100 to 1000 nM.
On to `CC[C@H]1[C@@H](O)[C@@H]2[C@H](CC[C@]3(C)[C@@H]([C@H](C)CCNS(=O)(=O)c4ccc(C(C)(C)C)s4)CC[C@@H]23)[C@@]2(C)CC[C@@H](O)C[C@@H]12` [Example 134], for which the “Efficacy (%)” value was 19%.
Regarding `CC[C@H]1[C@@H](O)[C@@H]2[C@H](CC[C@]3(C)[C@@H]([C@H](C)CCNC(=O)NS(=O)(=O)Cc4ccccc4)CC[C@@H]23)[C@@]2(C)CC[C@@H](O)C[C@@H]12` [Example 63], the “Efficacy (%)” value is on record as 452% and the half-maximal effective concentration (EC50) was in the range of 100 to 1000 nM.
On the same counts, the results for `CC[C@H]1[C@@H](O)[C@@H]2[C@H](CC[C@]3(C)[C@@H]([C@H](C)CCNC(=O)NS(=O)(=O)c4cccc(N(C)C)c4)CC[C@@H]23)[C@@]2(C)CC[C@@H](O)C[C@@H]12` [Example 112] are 287% and under 100 nM.
Turning to `CC[C@H]1[C@@H](O)[C@@H]2[C@H](CC[C@]3(C)[C@@H]([C@H](C)CNC(=O)NS(=O)(=O)c4ccc5ccccc5c4)CC[C@@H]23)[C@@]2(C)CC[C@@H](O)C[C@@H]12` [Example 32], the “Efficacy (%)” value is 309% and the EC50 was under 100 nM.
On the same counts, the results for `CC[C@H]1[C@@H](O)[C@@H]2[C@H](CC[C@]3(C)[C@@H]([C@H](C)CCNC(=O)NS(=O)(=O)C4CCC(F)(F)CC4)CC[C@@H]23)[C@@]2(C)CC[C@@H](O)C[C@@H]12` [Example 89] are 351% and under 100 nM.
On the same counts, the results for `CC[C@H]1[C@@H](O)[C@@H]2[C@H](CC[C@]3(C)[C@@H]([C@H](C)CNC(=O)NS(=O)(=O)c4ccc(N5CCCCC5)cc4)CC[C@@H]23)[C@@]2(C)CC[C@@H](O)C[C@@H]12` [Example 118] are 267% and under 100 nM.
On to `CC[C@H]1[C@@H](O)[C@@H]2[C@H](CC[C@]3(C)[C@@H]([C@H](C)CCNC(=O)NS(=O)(=O)C4CCCCC4)CC[C@@H]23)[C@@]2(C)CC[C@@H](O)C[C@@H]12` [Example 22], for which the “Efficacy (%)” value came out at 477% and the EC50 is under 100 nM.
On the same counts, the results for `CC[C@H]1[C@@H](O)[C@@H]2[C@H](CC[C@]3(C)[C@@H]([C@H](C)CCNC(=O)NS(=O)(=O)c4ccc(C(C)(C)C(=O)OC)cc4)CC[C@@H]23)[C@@]2(C)CC[C@@H](O)C[C@@H]12` [Example 70] are 434% and under 100 nM.
The like results for `CC[C@H]1[C@@H](O)[C@@H]2[C@H](CC[C@]3(C)[C@@H]([C@H](C)CCNC(=O)NS(=O)(=O)c4ccc(-c5cnc(C)o5)cc4C)CC[C@@H]23)[C@@]2(C)CC[C@@H](O)C[C@@H]12` [Example 79] were, in that order, 249% and 100 to 1000 nM.
With `CC[C@H]1[C@@H](O)[C@@H]2[C@H](CC[C@]3(C)[C@@H]([C@H](C)CCNC(=O)NS(=O)(=O)N4CC(C)C(C)C4)CC[C@@H]23)[C@@]2(C)CC[C@@H](O)C[C@@H]12` (some centres unmarked) [Example 99], the “Efficacy (%)” value amounted to 266% and the EC50 is under 100 nM.
`CC[C@H]1[C@@H](O)[C@@H]2[C@H](CC[C@]3(C)[C@@H]([C@H](C)CCNC(=O)NS(=O)(=O)N4CCC(C)(C)CC4)CC[C@@H]23)[C@@]2(C)CC[C@@H](O)C[C@@H]12` [Example 65]: the “Efficacy (%)” value was 498% and the EC50 is under 100 nM.
On the same counts, the results for `CC[C@H]1[C@@H](O)[C@@H]2[C@H](CC[C@]3(C)[C@@H]([C@H](C)CCNC(=O)NS(C)(=O)=O)CC[C@@H]23)[C@@]2(C)CC[C@@H](O)C[C@@H]12` [Example 6] are 269% and 100 to 1000 nM.
For `CC[C@H]1[C@@H](O)[C@@H]2[C@H](CC[C@]3(C)[C@@H]([C@H](C)CCNC(=O)NS(=O)(=O)c4c(F)c(F)c(F)c(F)c4F)CC[C@@H]23)[C@@]2(C)CC[C@@H](O)C[C@@H]12` [Example 92], the “Efficacy (%)” value is 325% and the EC50 was 1000 to 10000 nM.
On the same counts, the results for `CC[C@H]1[C@@H](O)[C@@H]2[C@H](CC[C@]3(C)[C@@H]([C@H](C)CCNC(=O)NS(=O)(=O)c4cnn(CC)c4)CC[C@@H]23)[C@@]2(C)CC[C@@H](O)C[C@@H]12` [Example 109] are 219% and 100 to 1000 nM.
On the same counts, the results for `CC[C@H]1[C@@H](O)[C@@H]2[C@H](CC[C@]3(C)[C@@H]([C@H](C)CCNC(=O)NS(=O)(=O)c4ccc(OC(F)(F)F)cc4)CC[C@@H]23)[C@@]2(C)CC[C@@H](O)C[C@@H]12` [Example 2] are 300% and under 100 nM.
The like results for `CC[C@H]1[C@@H](O)[C@@H]2[C@H](CC[C@]3(C)[C@@H]([C@H](C)CCNC(=O)NS(=O)(=O)c4ccc(C)c(C)c4)CC[C@@H]23)[C@@]2(C)CC[C@@H](O)C[C@@H]12` [Example 17] were, in that order, 357% and under 100 nM.
For the molecule `CC[C@H]1[C@@H](O)[C@@H]2[C@H](CC[C@]3(C)[C@@H]([C@H](C)CCNC(=O)NS(=O)(=O)N4CC5CC5C4)CC[C@@H]23)[C@@]2(C)CC[C@@H](O)C[C@@H]12` (some centres unmarked) [Example 68], the “Efficacy (%)” value turned out to be 458% and the half-maximal effective concentration (EC50) was under 100 nM.

Source of the values: patent US10208081B2, “Bile acid derivatives as FXR/TGR5 agonists and methods of use thereof” (Enanta Pharmaceuticals, Inc., priority 2014, dated 2019).
